Test results: patent publication US9771340B2, “2-aminothiazole derivatives and methods of preparing and using the same” (Huazhong University of Science & Technology, priority 2011, dated 2017)

Key:
[1] = molecular target: T1, PARP-1 (Homo sapiens, UniProt P09874); conditions: within a concentration of between 2 M and 10 mM (so in the source); positive control; cited from earlier work
T1 construct: purchased R&D 4677-096-K

[2] = test system: CD80 in RAW264.7 cells; conditions: pre-incubated 2 h, then stimulus 12 h
Description: 4. Flow antibodies FITC-labeled anti-CD80, CD86 were added for testing.
Raw264.7: 48-well plate, cells number of […]. Each well was added with 1 mL of culture system. Different concentrations of TJ-M201021 were added, and cells were pre-incubated for 2 h. CPG was then added. A final concentration was 40 ug/mL. Cells were incubated for 12 h at a temperature of 37° C. in an incubator filled with CO2. Flow antibodies FITC-labeled anti-CD80 and CD86 were added for testing.

[3] = test system: SH-SY5Y cells; experiment: Protection against neuronal apoptosis induced by hydrogen peroxide, MTT method; format: cell-based, human; conditions: SH-SY5Y cells damaged by H2O2 1000 μM/L for 12 h; concentration of 1 μM
Description: Dopaminergic neuroblastoma tumor cells SH-SY5Y from human body were employed as experiment cells. H2O2 having a concentration of 1000 μM/L was used to treat SH-SY5Y cells for 12 h. Cell viability was approximately 50%, and a hydrogen peroxide damage model was determined MTT method was used to test the protection of TJ-M201018 (1), TJ-M201005 (2), TJ-M201041 (3), TJ-M201021 (4), and TJ-M201064 (5) on the cells damaged by hydrogen peroxide; results were shown in FIG. 3.

[4] = test system: SH-SY5Y cells; experiment: Protection against cobalt chloride-induced hypoxic injury, MTT method and microscope; format: cell-based, human; conditions: cobalt chloride 600 μM/L for 24 h, FIG. 4, FIG. 6
Description: Dopaminergic neuroblastoma tumor cells SH-SY5Y from human body were employed as experiment cells. Cobalt chloride having a concentration of 600 μM/L was used to treat SH-SY5Y cells for 24 h. […] It was known from the results that the aminothiazole derivatives have good protection on the cell against hypoxic injuries caused by cobalt chloride. Observed under the microscope, cells after being damaged (FIG. 5) had unclear edges, and the number of the cells was decreased. […] The growth of the cells was good.

T1 sequence (P09874 whole entry): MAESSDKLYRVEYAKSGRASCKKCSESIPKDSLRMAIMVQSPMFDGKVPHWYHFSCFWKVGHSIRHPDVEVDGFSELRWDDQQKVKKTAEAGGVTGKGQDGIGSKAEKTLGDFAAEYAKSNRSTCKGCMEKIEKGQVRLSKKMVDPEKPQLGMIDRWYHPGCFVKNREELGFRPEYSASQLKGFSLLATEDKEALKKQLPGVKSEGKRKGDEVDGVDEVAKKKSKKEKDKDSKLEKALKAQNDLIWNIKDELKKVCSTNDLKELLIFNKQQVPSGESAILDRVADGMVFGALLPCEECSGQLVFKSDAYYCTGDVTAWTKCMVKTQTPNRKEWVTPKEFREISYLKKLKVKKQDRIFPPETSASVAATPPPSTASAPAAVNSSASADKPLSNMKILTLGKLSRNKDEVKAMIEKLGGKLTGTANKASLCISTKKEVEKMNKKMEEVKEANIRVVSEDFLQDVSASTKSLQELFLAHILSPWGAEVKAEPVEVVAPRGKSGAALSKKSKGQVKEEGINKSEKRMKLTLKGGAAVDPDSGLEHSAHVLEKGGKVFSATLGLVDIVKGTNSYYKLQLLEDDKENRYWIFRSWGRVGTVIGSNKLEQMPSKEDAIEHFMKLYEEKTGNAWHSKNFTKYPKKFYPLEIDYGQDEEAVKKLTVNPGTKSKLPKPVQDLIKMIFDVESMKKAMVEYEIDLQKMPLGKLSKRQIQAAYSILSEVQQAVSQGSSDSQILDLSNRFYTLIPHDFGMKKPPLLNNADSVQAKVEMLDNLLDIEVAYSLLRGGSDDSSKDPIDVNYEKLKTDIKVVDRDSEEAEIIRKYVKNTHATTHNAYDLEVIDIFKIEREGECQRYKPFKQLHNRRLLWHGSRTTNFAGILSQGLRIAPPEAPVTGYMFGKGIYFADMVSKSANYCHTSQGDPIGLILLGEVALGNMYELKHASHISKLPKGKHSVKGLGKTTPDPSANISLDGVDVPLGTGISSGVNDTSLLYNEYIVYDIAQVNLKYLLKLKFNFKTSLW

Structure (SMILES)	inhibition effect on the PARP-1 [1]	increase of the costimulatory molecules CD80 caused by TLR stimuli (LPS, CpG) [2]	cell viability (FIG. 3: increase rate of the cell viability) [3] [%]	protection on the cell against hypoxic injuries caused by cobalt chloride [4]
NC(=O)c1cccc(N)c1 [3-AB]	had an inhibition effect on the PARP-1			
COc1ccc(N2CCN(CCC(=O)Nc3nc(-c4ccccc4)cs3)CC2)cc1 [TJ-M201021]		inhibited the increase of the costimulatory molecules CD80	30	a large number of cells existed and had clear edges
